What was measured:
[1] = system: MG1655 E. coli (rpoB and mrcA regions of interest); assay: Maximum-Depth Sequencing (MDS) of mutation rates in E. coli grown with sub-inhibitory antibiotic doses; type: cell-based, Escherichia coli; conditions: for rate of transition mutations in rpoB: wild-type MG1655, aerobic, 1 μL/mL ampicillin or 15 ng/mL norfloxacin
Description: E. coli were streaked onto Luria-Bertani (LB) Agar from freezer stocks and grown at 30° C. for 24 hours. According to plating and colony-forming unit (CFU) counting, the average number of cells in such colonies is 3×10^8 (thus the number of generations is […]. Bacteria from a single colony were used to inoculate a small liquid culture (1 ml LB broth in a round-bottom tube). For the purposes of generation counting, it is assumed that after the transition to growing in liquid, growth occurs for only ˜3 generations, since the number of bacteria in the colony is roughly equal to the carrying capacity of the broth. The culture was grown for 12 hours on a 37° C. shaker.
4 μL (˜10^7 bacteria) were transferred to a fresh 100 mL LB liquid culture (in a 250 mL Erlenmeyer flask). Liquid cultures were grown for 24 hours on a 37° C. shaker, to a density of 2.5×10^9 bacteria according to cell counts (for a total of 2.5×10^11 bacteria). This process was performed 9 times. The average number of generations a bacterium would have grown in each liquid culture is
Four biological replicates of each condition were grown. All liquid cultures, including the small founding culture, had the possible addition of 1 μL/mL ampicillin or 15 ng/mL norfloxacin. […] The fact that most of the “interrelatedness” between bacteria sampled at the end of the culture is important for the way mutation rate is calculated.
MG1655 E. coli were used as wild-type cells for all experiments. The tet-regulated mrcA strain MG1655(CmR::Ptet-mrcA SpR::tetR) was prepared according to Lutz, R.; Bujard, H. (1997) Independent and tight regulation of transcriptional units in Escherichia coli via the LacR/O and the TetR/O and AraC/I1-I2 regulatory elements. Nucleic Acids Research. 25(6):1203-10. […] PNAS 111(20):E2100-E2109, doi: 10.1073/pnas.1201876111. Mutant strains were induced with anhydrous tetracycline at 50 ng/ml. In the mutS knockout strain, MG1655 mutS was replaced with a kanamycin resistance cassette.
0. Restriction digest. a. Incubate 1 μg DNA in 50 μL 1× restriction enzyme buffer with the appropriate amount of restriction enzyme. For this study, 1 unit XmnI was used. Samples were incubated at 37° C. overnight. b. Deactivate restriction enzyme. For XmnI, samples were heated at 65° C. for 20 minutes. 1. 1 cycle PCR with adapter-barcode-primer a. Prepare 50 μL PCR reaction mix using adapter-barcode-primer and 12.5 μL of the sample above (250 ng DNA) b. PCR, 1 cycle: 98° C. 1 min, 60° C. 15 sec, 72° C. 1 min 2. Remove unused barcodes a. Immediately add 1 μL exonuclease I+5 μL buffer. b. Incubate at 37° C. for 1 hr, then 80° C. for 20 min c. Clean sample using PCR purification kit 3. Linear amplification using forward adapter amplifier primers a. Add cleaned DNA to fresh 50 μL reaction mix with forward adapter amplifier primer. b. PCR, 12 cycles: 98° C. 15 sec, 61° C. 15 sec, 72° C. 5 sec Note: The number of linear amplification cycles is limited by off-target amplification.
a. Add adapter-reverse-primer and reverse adapter amplifier primers. b. PCR, 15 cycles: 98° C. 15 sec, 61° C. 15 sec, 72° C. 5 sec 5. Purify with Ampure XP beads Optional: If using multiple samples with phased barcodes, combine DNA first in equimolar concentrations. For this study, quantification at this step was done using TapeStation. 6. Sequence. HiSeq Rapid Run, 150 bp, Paired-End.
After grouping by barcode, sequences were aligned using the forward and reverse [primer] sequences for mrcA and rpoB above. Samples were indexed according to phase. Consensus bases, including indels, are called only when all bases at a given position and barcode have 100% agreement.
Mutation rates in the assay are chosen to maximize the likelihood of recovering the mean mutant frequency for substitutions of a given type X->Y, which occur a Poisson process over a certain number of generations (in this case 113). […]

E. coli = assay: Fluctuation assay of mutation rate with sub-inhibitory antibiotic doses; type: cell-based, Escherichia coli
Excerpt: The effect of sub-inhibitory doses of antibiotics of different classes on mutation rate was investigated using both MDS and detailed fluctuation assays as performed in Garibyan, L. et al. (2003). DNA Repair. 2(5):593-608; and Lang, G. I.; et al. (2008). Genetics 178(1):67-82.

SMILES | mutation rate in cells overexpressing catalase ([1]; MDS, catalase overexpression mutant, lower basal rate) | transversions and indel formation in mrcA ([1]; MDS, mrcA) | rate of transition mutations in rpoB ([1]; MDS) | transition rate, anaerobic conditions ([1]; cells grown in anaerobic conditions) | rate of >1 bp indel formation in both mrcA and rpoB ([1]; MDS, 15 ng/mL norfloxacin) | transition substitution rate in rpoB, fluctuation assays (E. coli)
CC1(C)S[C@@H]2[C@H](NC(=O)[C@H](N)c3ccccc3)C(=O)N2[C@H]1C(=O)O [ampicillin] | did not increase this lower rate | increased transversions and indel formation in mrcA | increase in the rate of transition mutations in rpoB | did not display an increase in transition rate |  | 
CCn1cc(C(=O)O)c(=O)c2cc(F)c(N3CCNCC3)cc21 [norfloxacin] |  |  | increased the transition substitution rate in rpoB |  | increased the rate of >1 bp indel formation in both mrcA and rpoB | this increase was only seen in cells that were grown to stationary phase
